Measured values taken from ChEMBL document CHEMBL1133350, “Novel DMARDs on the basis of a new concept of dual cytokine regulation, TNF-alpha suppression and IL-10 augmentation” (Bioorg Med Chem Lett, 2000).

What was measured:
[1] = Partition coefficient (logP); details: octanol/water
[2] = tested on: Mus musculus; assay: Inhibit tumor necrosis factor alpha production in LPS-stimulated mice after peroral administration of 10 mg/kg; type: functional; details: route oral
[3] = tested on: Mus musculus; assay: The compound (10 mg/kg) administered perorally was tested for its ability to augment IL-10 in LPS-stimulated mice; type: functional
[4] = tested on: Rattus norvegicus; assay: The compound (10 mg/kg) was tested for its therapeutic effect in an adjuvant-induced arthritis rat; type: functional
[5] = tested on: Rattus norvegicus; assay: The compound (30 mg/kg) was tested for its therapeutic effect in an adjuvant-induced arthritis rat; type: functional
[6] = Bioavailability of the compound in rats after administration of 30 mg/kg; type: ADME, organism-based; details: rat, in vivo, read-out: Bioavailabiility

SMILES | logP [1] | inhibition in vivo at 10 mg/kg [2] | IL-10 level (% of control) [3] | Therapeutic effect [4] | Therapeutic effect [5] | bioavailability [6]
CC(=O)NCc1ccc(CN2CCN(c3nccs3)CC2)cc1 | 1.23 | 85% | 1150% | 80% |  | 
CC(=O)NC1(c2ccc(CN3CCN(c4nccs4)CC3)cc2)CC1 | 1.58 | 84% | 646% | 133% |  | 
CC(=O)NC1(c2ccc(CN3CCN(c4ccccc4)CC3)cc2)CC1 | 1.9 | 90% | 712% |  |  | 
CC(=O)NC(C)(C)c1ccc(CN2CCN(c3ncccn3)CC2)cc1 | 1.18 | 77% | 200% |  |  | 
CC(=O)NC(C)(C)c1ccc(CN2CCN(c3nccs3)CC2)cc1 | 2.01 | 85% | 712% | 131% |  | 
CC(=O)NCc1ccc(CN2CCN(c3cccc(F)n3)CC2)cc1 | 1.45 | 85% | 973% | 144% |  | 
CC(=O)NCc1ccc(CN2CCN(c3ccccn3)CC2)cc1 | 0.88 | 88% | 642% | 62% |  | 
CC(=O)NCc1ccc(CN2CCN(c3ccccc3)CC2)cc1 | 1.55 | 89% | 376% |  | 35% | 
CC(=O)NC(C)(C)c1ccc(CN2CCN(c3cccc(F)n3)CC2)cc1 | 2.24 | 88% | 579% | 142% |  | 
CC(=O)NCc1ccc(CN2CCN(c3ccncc3)CC2)cc1 | 0.51 | 40% | 198% |  |  | 
CC(=O)NC(C)c1ccc(CN2CCN(c3ccccc3)CC2)cc1 (stereo unspecified) | 2.08 | 87% | 270% |  |  | 
CC(=O)NC1(c2ccc(CN3CCN(c4ncccn4)CC3)cc2)CC1 | 0.75 | 88% | 419% | 163% |  | 76%
CC(=O)NC(C)c1ccc(CN2CCN(c3cccc(F)n3)CC2)cc1 (stereo unspecified) | 1.99 | 82% | 404% | 173% |  | 
CC(=O)NCc1ccc(CN2CCN(c3cnccn3)CC2)cc1 | -0.09 | 76% | 334% |  |  | 
CC(=O)NCc1ccc(CN2CCN(c3ncccn3)CC2)cc1 | 0.4 | 82% | 713% | 46% |  | 
CC(=O)NC1(c2ccc(CN3CCN(c4cccc(F)n4)CC3)cc2)CC1 | 1.8 | 84% | 454% | 55% |  | 
CC(=O)NC(C)(C)c1ccc(CN2CCN(c3ccccc3)CC2)cc1 | 2.83 | 88% | 561% |  | 80% | 
CC(=O)NCc1ccc(CN2CCN(c3ccc(F)cc3F)CC2)cc1 |  | 91% | 2293% |  | 173% | 
CC(=O)NC(C)c1ccc(CN2CCN(c3nccs3)CC2)cc1 (stereo unspecified) | 1.76 | 84% | 621% | 101% |  | 
CC(=O)NCc1ccc(CN2CCN(c3cccnc3)CC2)cc1 | 0.49 | 61% | 236% |  |  | 
CCC(CC)(NC(C)=O)c1ccc(CN2CCN(c3ccccc3)CC2)cc1 | 3.35 | 81% | 321% |  |  | 
CCC(NC(C)=O)c1ccc(CN2CCN(c3ccccc3)CC2)cc1 (stereo unspecified) | 2.59 | 82% | 222% |  |  | 
CC(=O)NC(C)c1ccc(CN2CCN(c3ncccn3)CC2)cc1 (stereo unspecified) | 0.93 | 78% | 298% |  |  | 
CC(=O)NCc1ccc(CN2CCN(c3nccn3C)CC2)cc1 | 0.67 | 62% | 747% |  |  | 
